A word on the EC50: it is the concentration needed to bring the measured effect to its halfway point. As usually defined, the AC50 is the concentration at which the activity in the assay is half-maximal. Broadly, the CC50 is the concentration that lowers cell viability or growth by half.

Activity calls are given as the source filed them.

A short description of assay [1]: Luminescence Cell-Based Dose Confirmation HTS to Identify Activators of 5'UTR Stem-Loop Driven Alpha-Synuclein mRNA Translation in H4 Neuroglioblastoma Cells. [Related pubchem assays: 1829 (Project Summary), 1814 (Primary HTS)]. Type of assay: functional.
A short description of assay [2]: Luminescence Cell-Based Dose Response HTS to Identify Activators of Luciferase Translation or Activity in H4 […] Cells. [Related pubchem assays: 1829 (Project Summary), 1814 (Primary HTS)]. Type of assay: functional.
Assay [3] has as its system H4. The experiment in a line: Luminescence Cell-Based Dose Response HTS to Identify Activators of 5'UTR Stem-Loop Driven Prion Protein mRNA Translation in H4 Neuroglioblastoma Cells. [Related pubchem assays: 1829 (Project Summary), 1814 (Primary HTS)]. Type of assay: functional. The settings on record: Homo sapiens.
Assay [4] has as its system Streptococcus sp. 'group A'. The experiment in a line: growth inhibition of control SK(-) GAS strain, dose response, counter-screen for streptokinase expression inhibitor project, luminescence, kanamycin, BacTiterGlo, confirmation (AID 1900). Type of assay: functional, organism-based. (Counterscreens check selectivity or assay interference.)
Assay [5] addresses T1, Streptokinase A (Streptococcus pyogenes serotype M1, UniProt P10520).
T1 sequence (P10520 whole entry): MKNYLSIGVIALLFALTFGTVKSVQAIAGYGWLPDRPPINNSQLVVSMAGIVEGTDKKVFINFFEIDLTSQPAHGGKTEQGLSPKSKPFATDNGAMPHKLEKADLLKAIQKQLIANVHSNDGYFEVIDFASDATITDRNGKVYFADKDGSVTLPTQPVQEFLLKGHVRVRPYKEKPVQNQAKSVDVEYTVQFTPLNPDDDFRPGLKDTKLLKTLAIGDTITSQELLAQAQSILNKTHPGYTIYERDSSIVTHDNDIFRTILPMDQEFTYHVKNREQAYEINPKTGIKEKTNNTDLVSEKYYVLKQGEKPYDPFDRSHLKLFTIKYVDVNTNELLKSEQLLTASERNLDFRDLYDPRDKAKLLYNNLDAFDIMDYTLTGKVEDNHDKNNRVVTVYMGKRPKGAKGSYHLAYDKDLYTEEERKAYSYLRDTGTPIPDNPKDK
The experiment in a line: S. pyogenes streptokinase expression inhibitors, potency, dose response, plasminogen activation absorbance, OD405 (AID 1914).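 Also: secreted streptokinase activity via plasminogen activation per viability signal from cell pellet.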 The assay is classed as functional, Streptococcus pyogenes M1 GAS.

Assay [6] has as its system Streptococcus. The experiment in a line: Group A Streptococcus viability loss, dose response, counter-screen for streptokinase expression inhibitor project, luminescence, BacTiterGlo (AID 1915).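 Also: potency for reduction of bacterial viability or growth.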 The assay is classed as functional, organism-based.
Assay [7] can be described thus: Luminescence Cell-Based Dose Retest to Confirm Inhibitors of Cancer Stem Cells. [Related pubchem assays (depositor defined):AID2717, AID2721]. The assay is classed as functional. The conditions noted are these: Homo sapiens.
The target of assay [8] is T2, Heat shock factor protein 1 (Mus musculus, UniProt P38532).
T2 sequence (P38532 whole entry): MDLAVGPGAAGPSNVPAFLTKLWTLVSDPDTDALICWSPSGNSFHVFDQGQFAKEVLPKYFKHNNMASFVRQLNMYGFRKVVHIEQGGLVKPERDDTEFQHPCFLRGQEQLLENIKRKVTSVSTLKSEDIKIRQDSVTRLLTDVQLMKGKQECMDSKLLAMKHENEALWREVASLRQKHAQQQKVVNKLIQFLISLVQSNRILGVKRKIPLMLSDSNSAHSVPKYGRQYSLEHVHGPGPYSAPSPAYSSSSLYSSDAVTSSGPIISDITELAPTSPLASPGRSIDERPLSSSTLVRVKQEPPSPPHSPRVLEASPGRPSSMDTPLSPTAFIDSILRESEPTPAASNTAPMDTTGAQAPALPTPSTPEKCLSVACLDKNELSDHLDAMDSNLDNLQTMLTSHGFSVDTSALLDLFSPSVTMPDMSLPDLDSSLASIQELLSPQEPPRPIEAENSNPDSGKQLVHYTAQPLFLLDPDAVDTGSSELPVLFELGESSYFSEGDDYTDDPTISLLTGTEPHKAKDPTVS
The experiment in a line: inhibition of MG132-induced HSE-luciferase signal, confirmation, cell-based, NIH3T3, luminescence, dose retest (AID 2382).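 Also: NIH3T3 fibroblasts with HSF1-driven luciferase reporter stressed by proteasome inhibitor MG132; luminescence from HSF1-driven luciferase expression after 8 hours of MG132 stress.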 Type of assay: functional.

In assay [9] the target is T2, Heat shock factor protein 1. The experiment in a line: HSF1 potentiators in luciferase reporter cells, confirmation, cell-based, NIH3T3, luminescence, dose retest (AID 435004).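 Also: stress induced by proteasome inhibitor MG132 added 30 min after compound; luciferase reporter driven by HSF1 response element in NIH3T3 cells; actives raise luminescence as potentiators of the MG132 stress response.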 Type of assay: functional.
Assay [10] concerns the target Cytochrome P450 2C19 (Homo sapiens, UniProt P33261). The experiment in a line: Cytochrome panel assay with activity outcomes. Panel member name: p450-cyp2c19 Compounds with AC50 equal or less than 10 uM are considered active. Type of assay: functional. The conditions noted are these: read-out: AC50.
In assay [11] the target is T3, Cytochrome P450 1A2 (Homo sapiens, UniProt P05177).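 Also: PubChem cytochrome P450 panel assay, CYP1A2 panel member.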
T3 sequence (P05177 whole entry): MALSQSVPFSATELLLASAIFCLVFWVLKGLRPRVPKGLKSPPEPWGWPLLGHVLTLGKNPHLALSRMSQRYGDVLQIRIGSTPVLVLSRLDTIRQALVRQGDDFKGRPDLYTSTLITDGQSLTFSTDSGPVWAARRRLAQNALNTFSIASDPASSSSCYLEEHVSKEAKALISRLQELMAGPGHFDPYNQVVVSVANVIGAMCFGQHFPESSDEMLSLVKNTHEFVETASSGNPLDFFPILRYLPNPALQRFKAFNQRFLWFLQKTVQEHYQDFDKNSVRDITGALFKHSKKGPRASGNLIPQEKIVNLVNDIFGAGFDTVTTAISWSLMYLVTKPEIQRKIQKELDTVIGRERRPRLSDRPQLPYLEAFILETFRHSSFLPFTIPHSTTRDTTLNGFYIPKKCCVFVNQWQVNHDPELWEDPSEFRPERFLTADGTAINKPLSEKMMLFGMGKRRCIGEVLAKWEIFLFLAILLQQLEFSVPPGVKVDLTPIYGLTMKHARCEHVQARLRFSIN

Assay [12] can be described thus: HEp-2 cell cytotoxicity, dose response, cytotoxicity control for RSV inhibitor project, HTS (AID 2410). The conditions noted are these: human respiratory syncytial virus. The assay is classed as functional.
Assay [13] is described as follows: inhibitors of intracellular T. cruzi replication, confirmation, NIH3T3 host cells, beta-gal luminescence (AID 2044).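 Also: intracellular parasites grown in NIH/3T3 mouse fibroblasts as host cells; luminescent beta-galactosidase reporter signal from transgenic T. cruzi replicating inside host cells; inhibitors lower the luminescence signal.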 The assay is classed as functional, cell-based.
A short description of assay [14]: cytotoxicity toward NIH3T3 fibroblasts, dose response, counter-screen, cell-based, ATP luminescence, mouse fibroblasts (AID 2010).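 Also: cells exposed to compound for about 90 hours before reading.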 The assay is classed as functional.

Sequence of Cytochrome P450 2C19 (P33261 whole entry): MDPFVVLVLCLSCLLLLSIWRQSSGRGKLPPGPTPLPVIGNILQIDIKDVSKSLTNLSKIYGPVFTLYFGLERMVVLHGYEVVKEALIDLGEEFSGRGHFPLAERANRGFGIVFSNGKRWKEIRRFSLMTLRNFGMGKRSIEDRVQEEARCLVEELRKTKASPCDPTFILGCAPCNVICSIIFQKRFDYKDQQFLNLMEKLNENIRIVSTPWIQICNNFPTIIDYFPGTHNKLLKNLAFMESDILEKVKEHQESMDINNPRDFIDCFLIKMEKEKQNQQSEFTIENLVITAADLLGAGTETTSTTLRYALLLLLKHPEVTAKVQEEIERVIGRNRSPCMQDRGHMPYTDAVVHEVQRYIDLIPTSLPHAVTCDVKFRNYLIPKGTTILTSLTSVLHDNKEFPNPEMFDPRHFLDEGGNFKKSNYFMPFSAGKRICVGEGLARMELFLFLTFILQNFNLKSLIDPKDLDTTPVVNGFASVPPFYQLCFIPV

`COc1ccc(OCc2cc(C(=O)N(C)Cc3cc(C)no3)no2)c(Cl)c1`: the EC50 in assay [1] is 1.42 µM (active); in assay [2] it was 65.1 µM (active); in assay [3] it was 10.1 µM (active).
With `c1ccc(-c2onc(-c3ccco3)c2-c2ccc3[nH]ccc3c2)cc1`, the EC50 in assay [1] is 14.3 µM (active); in assay [2] it was 63.1 µM (active); in assay [4], 3.19 µM (active); in [3], 23.7 µM (active); in assay [5], 4.99 µM (active); in assay [6] it was 26.4 µM (active).
As for `CCN1C(=O)/C(=C\N2CCN(c3cccc(Cl)c3)CC2)SC1=S`, the half-maximal activity concentration (AC50) in assay [7] is 1.77 µM (active).
For the molecule `COc1cccc(-n2nnc3c(=O)n(Cc4ccccc4Cl)cnc32)c1`, the EC50 is > 150 µM (not active) in [4], > 195 µM (not active) in [8], > 150 µM (not active) in assay [5] and > 150 µM (not active) in assay [6].
In the case of `Oc1ccc(Br)cc1-c1cc(-c2ccccc2)[nH]n1`, in [7], the AC50 was 4.95 µM (active).
With `CNC(C)C#Cc1ccc2sc3cc(OC)c(OC)cc3c(=O)c2c1` (centres undefined), the EC50 in assay [1] was 22.3 µM (active); in [2] it was 15.3 µM (active); in assay [3], > 120 µM (not active).
Consider `O=c1c2c(-c3ccccc3)ccnc2[nH]n1-c1ccccc1`, for which the values for the EC50 in assay [1], in [2] and in [3] were > 120 µM (not active), 10.8 µM (active) and > 120 µM (not active), respectively.
For the molecule `Cc1cc(C)c2c(NC(=O)C3CC3)nn(C)c2n1`, in assay [9], the EC50 was > 260 µM (inactive).
For the molecule `Cc1ccc(OC(=O)NC2CCS(=O)(=O)C2)cc1C` (centres undefined), the EC50 in assay [1], in [2] and in assay [3] was > 120 µM (not active) throughout.
As for `O=C(Nc1ccccc1)C1=C[C@@H](c2csc3ccccc23)C[C@@H](OCc2ccc(CO)cc2)O1`, in assay [7], the AC50 is 2.65 µM (active).
For the molecule `Cn1c(=O)c(/C=C/c2ccc(F)cc2)nc2ccccc21`, the EC50 in [9] is 36.5 µM (active).
As for `CC1CCCC(N=C(S)Nc2ccc(SC(F)F)cc2)C1C` (centres undefined), the AC50 in assay [7] is 5.61 µM (active).
`CCc1ccc(CN(C(=O)c2cc3ccccc3oc2=O)C2CCS(=O)(=O)C2)cc1` (centres undefined): the EC50 was 27.7 µM (active) in assay [1], 28.6 µM (active) in assay [2] and 0.547 µM (active) in assay [3]. The results for the concentration at half-maximal activity (AC50) in assay [10] and in assay [11] were 20 µM (inconclusive) and 28.2 µM (inconclusive), respectively.
Take `CCCC(C)c1nnc(NC(=O)COc2ccc3c(c2)OCO3)s1` (centres undefined): the AC50 in [7] was 5.69 µM (active).
Consider `COc1ccccc1NC(=O)c1ccc(S(=O)(=O)N2CCCC(C)C2)cc1` (centres undefined), for which, in assay [7], the AC50 is > 195 µM (inactive).
As for `CCCCCCNC(=O)CN=C(S)N(Cc1cccs1)C1CCCCC1`, in [9], the EC50 was > 260 µM (inactive).
With `O=C(COc1ccc(Br)cc1Br)NC(=O)NC1CCCC1`, the figures for the EC50 in assay [1], in assay [2] and in assay [3] were 8.14 µM (active), 33.4 µM (active) and > 120 µM (not active), respectively.
Turning to `Cc1ccccc1C(=O)ON=C(N)c1cccc([N+](=O)[O-])c1`, the values for the EC50 in assay [1], in assay [2] and in assay [3] were 13.8 µM (active), 17 µM (active) and 27.5 µM (active), respectively.
For the molecule `Nc1nc(CSCc2ccccc2)nc(N2CCOCC2)n1`, the half-maximal effective concentration (EC50) was > 120 µM (not active) in assay [1], 6.28 µM (active) in assay [2] and 50.7 µM (active) in [3].
In the case of `Oc1ccc2ccccc2c1CN1CCN(c2ccccc2)CC1`, in assay [9], the concentration for a half-maximal effect (EC50) is 49.8 µM (active).
As for `CC(=O)c1cccc(N(CC(=O)Nc2ccc(F)cc2F)S(C)(=O)=O)c1`, in assay [9], the concentration for a half-maximal effect (EC50) is 176 µM (active).
Consider `CC1CCC(NC(=O)Cn2c(=O)[nH]c3ccsc3c2=O)CC1` (centres undefined), for which the results for the EC50 in [1], in [2] and in [3] were 12.4 µM (active), 29.3 µM (active) and 90.1 µM (active), respectively.
On to `C=CCn1c(SCC(N)=O)nnc1-c1cc2c(s1)CCC(CC)C2` (centres undefined), for which the EC50 was 3 µM (active) in assay [1], 27.7 µM (active) in assay [2] and 5.64 µM (active) in [3].
`COc1cccc(Oc2nnnn2-c2ccccc2)c1`: the EC50 was 0.44 µM (active) in assay [1], 54.7 µM (active) in assay [2] and > 120 µM (not active) in assay [3].
For the molecule `COc1cccc(-c2ccc(C#N)c(OC(=O)c3c(Cl)cccc3Cl)n2)c1`, the half-maximal cytotoxic concentration (CC50) in [12] is 28.1 µM (active). The AC50 in [7] is 3.52 µM (active).
`Cc1ccc(C(=O)CCC2CCCCC2=O)cc1` (centres undefined): the EC50 in assay [1] was 13.2 µM (active); in assay [2], 36.7 µM (active); in assay [3] it was 28.4 µM (active).
As for `Cc1ccc(-c2[nH]ncc2C(=O)c2ccc(Br)cc2)c(O)c1`, the EC50 in assay [9] is > 260 µM (inactive).
As to `CCOc1ccc2nc(N3CCCC(C(=O)NCC4CCCO4)C3)sc2c1` (centres undefined), the EC50 is 17.5 µM (active) in assay [1], 17.1 µM (active) in [2] and 17.2 µM (active) in assay [3].
With `Cc1nn(C)c(C(=O)Nc2ccc(S(=O)(=O)NC34CC5CC(CC(C5)C3)C4)cc2)c1Br`, the 50% effective concentration (EC50) in [4] was 8.5 µM (active); in [5], 16.8 µM (active); in assay [13], 2.79 µM (active); in [14], > 60 µM (inconclusive); in [6], 16.5 µM (active).
Turning to `Cc1cc2c3c(c1)C1(C(=O)N3C(C)(C)CC2C)C(C#N)=C(N)Oc2cc(O)ccc21` (centres undefined), the values for the EC50 in [13], in assay [14] and in assay [9] were 1.41 µM (active), > 60 µM (not active) and 54.7 µM (active), respectively.
As for `CCc1ccccc1NC(=O)CC(c1ccc(OC)cc1)n1cccc1` (centres undefined), in assay [9], the EC50 is > 260 µM (inactive).
On to `CCOC(=O)CC1C(=O)NCCN1S(=O)(=O)c1cc(Cl)c(Cl)cc1Cl` (centres undefined), for which the EC50 in assay [9] was > 260 µM (inactive).
Consider `Brc1ccccc1-n1nnc(-c2cnc3ccccc3c2)n1`, for which the EC50 in [9] was > 260 µM (inactive).
With `COc1ccc(/C=N/N(c2ccccc2)c2ccccc2)cc1O`, in assay [7], the AC50 is 6.76 µM (active).
For the molecule `C/C(=N\NC(=O)c1nnn(-c2nonc2N)c1CN1CCCCC1)c1ccccc1O`, the half-maximal activity concentration (AC50) in [7] was 3.42 µM (active).
As for `Cc1ccc(/C=c2\s/c(=C(/C#N)C(=O)N3CCCC3)n(Cc3ccco3)c2=O)s1`, in [9], the EC50 is 9.99 µM (active).

The values above are taken from ChEMBL document CHEMBL1201862, “PubChem BioAssay data set” (2004).
